The source of these data is ChEMBL document CHEMBL3045107, “A facile green synthesis and in vitro antimicrobial activity 4H-pyrimido[2,1-b][1,3]benzothiazole derivatives using aluminum trichloride under solvent free conditions” (Med Chem Res, 2012).

Each structure is given as a SMILES string. Converted amounts (≈) assume the structure as drawn. The source made the active and inactive calls. No cut-off for these calls is given here.

Experiment [1] has as its system Aspergillus flavus. Put plainly: Antifungal activity against Aspergillus flavus at 0.78 to 50 ug/ml after 72 hr by broth microdilution method. In kind it is functional. Background: Dilution methods test growth across graded concentrations, often in twofold steps.
Experiment [2] relates to Salmonella typhi. Put plainly: Antibacterial activity against Salmonella enterica subsp. enterica serovar Typhi ATCC 23564 after 24 hr by broth microdilution method. It counts as functional. The note with it: ATCC 23564, 24 h.
The subject of a further experiment is Bacillus cereus. Put plainly: Antibacterial activity against Bacillus cereus MTCC 7350 after 24 hr by broth microdilution method. It counts as functional. The note with it: MTCC 7350, 24 h.
The subject of experiment [3] is Staphylococcus aureus. Put plainly: Antibacterial activity against Staphylococcus aureus ATCC 11632 after 24 hr by broth microdilution method. In kind it is functional. The note with it: ATCC 11632, 24 h.
Experiment [4] can be described thus: Cytotoxicity against Homo sapiens (human) L123 cells after 48 hr by MTT assay. It counts as cell-based. The arrangement: unit not given here. (Tetrazolium dyes change colour on reduction, which living cells bring about.)
Experiment [5] deals with Aspergillus niger. The experiment can be described thus: Antifungal activity against Aspergillus niger at 0.78 to 50 ug/ml after 72 hr by broth microdilution method. In kind it is functional.
Experiment [6] concerns Aspergillus flavus. The experiment can be described thus: Antifungal activity against Aspergillus flavus after 72 hr by broth microdilution method. In kind it is functional.
Experiment [7] deals with Aspergillus fumigatus. Put plainly: Antifungal activity against Aspergillus fumigatus after 72 hr by broth microdilution method. It counts as functional.
Experiment [8] deals with Escherichia coli. Put plainly: Antibacterial activity against Escherichia coli ATCC 35218 after 24 hr by broth microdilution method. It counts as functional. The note with it: ATCC 35218, 24 h.
For experiment [9], the system named is Providencia rettgeri. Put plainly: Antibacterial activity against Providencia rettgeri isolated from infected fish after 24 hr by broth microdilution method. In kind it is functional.
For experiment [10], the system named is Pseudomonas aeruginosa. The experiment can be described thus: Antibacterial activity against Pseudomonas aeruginosa ATCC 15499 after 24 hr by broth microdilution method. The note with it: ATCC 15499, 24 h. In kind it is functional.
Experiment [11] has as its system Aspergillus fumigatus. The experiment can be described thus: Antifungal activity against Aspergillus fumigatus at 0.78 to 50 ug/ml after 72 hr by broth microdilution method. In kind it is functional.
In experiment [12] the test system is Salmonella typhi. The experiment can be described thus: Antibacterial activity against Salmonella enterica subsp. enterica serovar Typhi ATCC 23564 at 0.78 to 50 ug/ml after 24 hr by broth microdilution method. In kind it is functional, organism-based.
Experiment [13] has as its system Aspergillus niger. The experiment can be described thus: Antifungal activity against Aspergillus niger after 72 hr by broth microdilution method. In kind it is functional.
The test system of experiment [14] is Pseudomonas aeruginosa. The experiment can be described thus: Antibacterial activity against Pseudomonas aeruginosa ATCC 15499 at 0.78 to 50 ug/ml after 24 hr by broth microdilution method. In kind it is functional, organism-based.
The test system of experiment [15] is Staphylococcus aureus. Put plainly: Antibacterial activity against Staphylococcus aureus ATCC 11632 at 0.78 to 50 ug/ml after 24 hr by broth microdilution method. In kind it is functional, organism-based.
Experiment [16] relates to Escherichia coli. Put plainly: Antibacterial activity against Escherichia coli ATCC 35218 at 0.78 to 50 ug/ml after 24 hr by broth microdilution method. It counts as functional, organism-based.
Experiment [17] deals with Providencia rettgeri. Put plainly: Antibacterial activity against Providencia rettgeri isolated from infected fish at 0.78 to 50 ug/ml after 24 hr by broth microdilution method. In kind it is functional, organism-based.

One may read the MIC as the lowest concentration found to suppress growth. Take `CCOC(=O)C1=C(C)N=C2Sc3ccccc3N2C1c1c(Cl)cccc1Cl` (configuration not stated): the outcome in the experiment on Aspergillus flavus [1], in the experiment with Aspergillus niger [5] and in the experiment with Aspergillus fumigatus [11] was inactive. The MIC with Salmonella typhi [2] stood at 25 µg/mL (≈ 59.6 µM); against Bacillus cereus it was 6.25 µg/mL (≈ 14.9 µM); with Staphylococcus aureus [3] it was 12.5 µg/mL (≈ 29.8 µM); against Aspergillus flavus [6] it was 12.5 µg/mL (≈ 29.8 µM); against Aspergillus fumigatus [7], 6.25 µg/mL (≈ 14.9 µM); against Escherichia coli [8], 6.25 µg/mL (≈ 14.9 µM). Also, the MIC against Providencia rettgeri [9] and with Pseudomonas aeruginosa [10] was 12.5 µg/mL (≈ 29.8 µM) throughout. In experiment [4], the IC50 was over 100.

Regarding `CCOC(=O)C1=C(C)N=C2Sc3ccccc3N2C1c1ccc(O)c(OC)c1` (configuration not stated), the outcome in the experiment with Aspergillus flavus [1], in the experiment on Salmonella typhi [12], in the experiment on Aspergillus fumigatus [11] and in the experiment on Pseudomonas aeruginosa [14] was inactive. Also, the MIC was 12.5 µg/mL (≈ 31.5 µM) in the experiment on Bacillus cereus; 25 µg/mL (≈ 63.1 µM) in the experiment with Staphylococcus aureus [3]; 6.25 µg/mL (≈ 15.8 µM) against Aspergillus niger [13]; 25 µg/mL (≈ 63.1 µM) with Escherichia coli [8]; 25 µg/mL (≈ 63.1 µM) in the experiment with Providencia rettgeri [9]. Also, the IC50 in [4] was determined as 50. Besides, the “inhibition zone (IZ)” value with Aspergillus niger [5] is on record as 10 mm.

Consider `CCOC(=O)C1=C(C)N=C2Sc3ccccc3N2C1c1ccc(N(C)C)cc1` (configuration not stated), for which the result in the experiment with Aspergillus flavus [1], in the experiment with Aspergillus niger [5], in the experiment with Staphylococcus aureus [15] and in the experiment with Aspergillus fumigatus [11] was inactive. The MIC against Salmonella typhi [2] was found to be 12.5 µg/mL (≈ 31.8 µM); against Bacillus cereus it was 6.25 µg/mL (≈ 15.9 µM); in the experiment with Escherichia coli [8], 12.5 µg/mL (≈ 31.8 µM); in the experiment on Providencia rettgeri [9], 12.5 µg/mL (≈ 31.8 µM); against Pseudomonas aeruginosa [10], 12.5 µg/mL (≈ 31.8 µM). The compound further gave an IC50 in experiment [4] of over 100.

`CCOC(=O)C1=C(C)N=C2Sc3ccccc3N2C1c1ccccc1` (configuration not stated): the outcome with Aspergillus flavus [1], in the experiment on Escherichia coli [16], with Aspergillus niger [5], in the experiment with Providencia rettgeri [17] and in the experiment with Staphylococcus aureus [15] was inactive. Besides, the MIC in the experiment on Salmonella typhi [2] was determined as 25 µg/mL (≈ 71.3 µM); against Bacillus cereus, 12.5 µg/mL (≈ 35.7 µM); with Aspergillus fumigatus [7], 6.25 µg/mL (≈ 17.8 µM); in the experiment on Pseudomonas aeruginosa [10] it was 25 µg/mL (≈ 71.3 µM). Moreover, the IC50 in experiment [4] is reported as over 100. For the same compound, the “inhibition zone (IZ)” value with Aspergillus fumigatus [11] is 10 mm.

On to `O=C(O)c1cn(C2CC2)c2cc(N3CCNCC3)c(F)cc2c1=O` [CIPROFLOXACIN], for which the MIC came to 3.25 µg/mL (≈ 9.81 µM) with Salmonella typhi [2]; 1.62 µg/mL (≈ 4.89 µM) against Bacillus cereus; 3.25 µg/mL (≈ 9.81 µM) against Staphylococcus aureus [3]; 1.62 µg/mL (≈ 4.89 µM) in the experiment on Escherichia coli [8]; 1.62 µg/mL (≈ 4.89 µM) against Providencia rettgeri [9]; 1.62 µg/mL (≈ 4.89 µM) in the experiment with Pseudomonas aeruginosa [10].

Take `OC(Cn1cncn1)(Cn1cncn1)c1ccc(F)cc1F` [FLUCONAZOLE]: the figures for the “inhibition zone (IZ)” value in the experiment with Aspergillus flavus [1], in the experiment on Aspergillus niger [5] and with Aspergillus fumigatus [11] were 25 mm, 18 mm and 22 mm, respectively. Further, the MIC against Aspergillus flavus [6], in the experiment on Aspergillus fumigatus [7] and in the experiment with Aspergillus niger [13] was 1.62 µg/mL (≈ 5.29 µM) each time.

In the case of `CCOC(=O)C1=C(C)N=C2Sc3ccccc3N2C1c1ccc(O)cc1` (configuration not stated), the result in the experiment with Aspergillus flavus [1] was inactive. Besides, the MIC with Salmonella typhi [2] is 25 µg/mL (≈ 68.2 µM); in the experiment on Bacillus cereus it was 6.25 µg/mL (≈ 17.1 µM); in the experiment with Staphylococcus aureus [3], 12.5 µg/mL (≈ 34.1 µM); in the experiment on Aspergillus niger [13], 6.25 µg/mL (≈ 17.1 µM); against Escherichia coli [8], 6.25 µg/mL (≈ 17.1 µM); in the experiment on Providencia rettgeri [9], 12.5 µg/mL (≈ 34.1 µM). Also, the MIC with Pseudomonas aeruginosa [10] is 12.5 µg/mL (≈ 34.1 µM). This compound registered an IC50 in experiment [4] of 50. In addition, the “inhibition zone (IZ)” value is 15 mm in the experiment with Aspergillus niger [5] and 12 mm with Aspergillus fumigatus [11].

With `CCOC(=O)C1=C(C)N=C2Sc3ccccc3N2C1c1ccccc1O` (configuration not stated), the “inhibition zone (IZ)” value in the experiment with Aspergillus flavus [1] came to 11 mm. Further, the MIC in the experiment with Bacillus cereus turned out to be 6.25 µg/mL (≈ 17.1 µM); against Aspergillus flavus [6], 12.5 µg/mL (≈ 34.1 µM); in the experiment on Escherichia coli [8], 12.5 µg/mL (≈ 34.1 µM); against Providencia rettgeri [9] it was 12.5 µg/mL (≈ 34.1 µM); in the experiment with Pseudomonas aeruginosa [10], 25 µg/mL (≈ 68.2 µM). Also, the outcome in the experiment with Salmonella typhi [12], in the experiment on Aspergillus niger [5], with Staphylococcus aureus [15] and in the experiment on Aspergillus fumigatus [11] was inactive. The compound also registered an IC50 in [4] of over 100.

Regarding `CCOC(=O)C1=C(C)N=C2Sc3ccccc3N2C1c1ccc(OC)cc1` (configuration not stated), the “inhibition zone (IZ)” value in the experiment on Aspergillus flavus [1] came to 18 mm; with Aspergillus niger [5], 16 mm; in the experiment on Aspergillus fumigatus [11], 20 mm. The minimum inhibitory concentration (MIC) was 12.5 µg/mL (≈ 32.9 µM) against Salmonella typhi [2]; 6.25 µg/mL (≈ 16.4 µM) with Bacillus cereus; 6.25 µg/mL (≈ 16.4 µM) against Staphylococcus aureus [3]; 6.25 µg/mL (≈ 16.4 µM) against Aspergillus fumigatus [7]; 6.25 µg/mL (≈ 16.4 µM) in the experiment on Aspergillus niger [13]; 6.25 µg/mL (≈ 16.4 µM) against Escherichia coli [8]. Further, the MIC against Providencia rettgeri [9] and against Pseudomonas aeruginosa [10] was 6.25 µg/mL (≈ 16.4 µM) throughout. For the same compound, the IC50 in experiment [4] was over 100.

In the case of `CCOC(=O)C1=C(C)N=C2Sc3ccccc3N2C1c1ccc([N+](=O)[O-])cc1` (configuration not stated), in the experiment with Aspergillus flavus [1], the outcome was inactive. Moreover, the MIC against Salmonella typhi [2] was found to be 6.25 µg/mL (≈ 15.8 µM); with Bacillus cereus, 6.25 µg/mL (≈ 15.8 µM); with Staphylococcus aureus [3], 25 µg/mL (≈ 63.2 µM); in the experiment with Aspergillus fumigatus [7], 6.25 µg/mL (≈ 15.8 µM); against Aspergillus niger [13] it was 12.5 µg/mL (≈ 31.6 µM); against Escherichia coli [8] it was 12.5 µg/mL (≈ 31.6 µM). For the same compound, the MIC in the experiment with Providencia rettgeri [9] stood at 25 µg/mL (≈ 63.2 µM); against Pseudomonas aeruginosa [10] it was 12.5 µg/mL (≈ 31.6 µM). In experiment [4], this compound gave an IC50 of over 100. Also, the “inhibition zone (IZ)” value with Aspergillus niger [5] turned out to be 17 mm; in the experiment with Aspergillus fumigatus [11], 15 mm.
